Source: US11981658B2, “Substituted aminopyridine compounds as EGFR inhibitors” (YUHAN CORPORATION, priority 2021, dated 2024)
Read-outs that look alike come from different tables or passages of the source.

Key:
[1] = molecular target: EGFR Del19/T790M/C797S (Homo sapiens, UniProt P00533, C797S/DEL746-750/T790M); assay: Biochemical EGFR kinase inhibition assay (Lance Ultra TR-FRET), triple mutant del19/T790M/C797S
How it was run: (§1)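 Step 1: compound in kinase buffer, 0.003–10 μM. Step 2: kinase reaction 1 h at room temperature. Step 4: TR-FRET read at 615/665 nm; IC50 calculated.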

[2] = molecular target: EGFR L858R/T790M/C797S (Homo sapiens, UniProt P00533, C797S/L858R/T790M); assay: Biochemical EGFR kinase inhibition assay (Lance Ultra TR-FRET), triple mutant L858R/T790M/C797S
How it was run: as §1

[3] = molecular target: EGFR Del19/C797S (Homo sapiens, UniProt P00533, C797S/DEL746-750); assay: Biochemical EGFR kinase inhibition assay (Lance Ultra TR-FRET), double mutant del19/C797S
How it was run: as §1

[4] = molecular target: EGFR L858R/C797S (Homo sapiens, UniProt P00533, C797S/L858R); assay: Biochemical EGFR kinase inhibition assay (Lance Ultra TR-FRET), double mutant L858R/C797S
How it was run: as §1

[5] = molecular target: EGFR wildtype (WT) (Homo sapiens, UniProt P00533); assay: Biochemical EGFR kinase inhibition assay (Lance Ultra TR-FRET), wildtype
How it was run: as §1

[6] = IC50 Del19/T790M/C797S (nM), 100 μM ATP
[7] = IC50 L858R/T790M/C797S (nM), 100 μM ATP
[8] = IC50 Del19/C797S (nM), 100 μM ATP
[9] = IC50 L858R/C797S (nM), 100 μM ATP
[10] = ATP at Km, read-out: IC50 Del19/T790M/C797S (nM), Km ATP
[11] = ATP at Km, read-out: IC50 L858R/T790M/C797S (nM), Km ATP
[12] = ATP at Km, read-out: IC50 Del19/C797S (nM), Km ATP
[13] = ATP at Km, read-out: IC50 L858R/C797S (nM), Km ATP
[14] = ATP at Km, read-out: IC50 WT (nM), Km ATP
[15] = Km ATP, read-out: IC50 Del19/T790M/C797S (nM), Km ATP
[16] = Km ATP, read-out: IC50 L858R/T790M/C797S (nM), Km ATP
[17] = Km ATP, read-out: IC50 Del19/C797S (nM), Km ATP
[18] = Km ATP, read-out: IC50 L858R/C797S (nM), Km ATP
[19] = Km ATP, read-out: IC50 WT (nM), Km ATP

EGFR Del19/T790M/C797S, sequence (P00533 with tags, fused parts or gaps DEL746-750/T790M/C797S): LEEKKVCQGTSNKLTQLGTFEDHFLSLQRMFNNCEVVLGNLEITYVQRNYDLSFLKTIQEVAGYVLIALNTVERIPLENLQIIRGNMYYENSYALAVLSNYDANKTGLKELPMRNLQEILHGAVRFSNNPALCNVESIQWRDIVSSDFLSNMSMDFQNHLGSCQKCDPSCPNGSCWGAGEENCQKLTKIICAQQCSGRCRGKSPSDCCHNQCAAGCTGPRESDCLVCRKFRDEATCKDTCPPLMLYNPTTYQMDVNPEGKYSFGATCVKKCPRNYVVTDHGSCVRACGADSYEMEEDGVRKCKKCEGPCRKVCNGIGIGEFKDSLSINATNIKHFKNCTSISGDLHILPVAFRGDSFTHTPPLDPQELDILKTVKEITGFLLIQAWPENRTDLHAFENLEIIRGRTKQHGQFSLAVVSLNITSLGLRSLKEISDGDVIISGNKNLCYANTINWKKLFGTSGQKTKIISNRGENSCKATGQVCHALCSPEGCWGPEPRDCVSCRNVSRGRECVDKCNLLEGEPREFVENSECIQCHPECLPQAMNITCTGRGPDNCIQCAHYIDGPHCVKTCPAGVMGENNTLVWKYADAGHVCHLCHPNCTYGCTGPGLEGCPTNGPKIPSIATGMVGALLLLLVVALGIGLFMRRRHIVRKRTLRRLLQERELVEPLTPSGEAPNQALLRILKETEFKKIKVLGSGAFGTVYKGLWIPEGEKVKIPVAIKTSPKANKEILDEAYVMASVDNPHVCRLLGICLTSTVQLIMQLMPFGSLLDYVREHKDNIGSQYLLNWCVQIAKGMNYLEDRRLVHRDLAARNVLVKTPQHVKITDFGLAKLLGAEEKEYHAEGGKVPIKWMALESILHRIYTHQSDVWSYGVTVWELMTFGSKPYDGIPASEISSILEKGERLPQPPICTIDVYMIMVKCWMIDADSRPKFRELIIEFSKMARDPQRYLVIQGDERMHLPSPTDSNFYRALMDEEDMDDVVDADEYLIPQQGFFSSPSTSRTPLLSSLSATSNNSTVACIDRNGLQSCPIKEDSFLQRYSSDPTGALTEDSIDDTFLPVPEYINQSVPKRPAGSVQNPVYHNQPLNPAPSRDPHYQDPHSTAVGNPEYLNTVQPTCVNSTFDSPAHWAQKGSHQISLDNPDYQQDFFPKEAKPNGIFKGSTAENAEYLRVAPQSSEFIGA
EGFR wildtype (WT), sequence (P00533 25-1210): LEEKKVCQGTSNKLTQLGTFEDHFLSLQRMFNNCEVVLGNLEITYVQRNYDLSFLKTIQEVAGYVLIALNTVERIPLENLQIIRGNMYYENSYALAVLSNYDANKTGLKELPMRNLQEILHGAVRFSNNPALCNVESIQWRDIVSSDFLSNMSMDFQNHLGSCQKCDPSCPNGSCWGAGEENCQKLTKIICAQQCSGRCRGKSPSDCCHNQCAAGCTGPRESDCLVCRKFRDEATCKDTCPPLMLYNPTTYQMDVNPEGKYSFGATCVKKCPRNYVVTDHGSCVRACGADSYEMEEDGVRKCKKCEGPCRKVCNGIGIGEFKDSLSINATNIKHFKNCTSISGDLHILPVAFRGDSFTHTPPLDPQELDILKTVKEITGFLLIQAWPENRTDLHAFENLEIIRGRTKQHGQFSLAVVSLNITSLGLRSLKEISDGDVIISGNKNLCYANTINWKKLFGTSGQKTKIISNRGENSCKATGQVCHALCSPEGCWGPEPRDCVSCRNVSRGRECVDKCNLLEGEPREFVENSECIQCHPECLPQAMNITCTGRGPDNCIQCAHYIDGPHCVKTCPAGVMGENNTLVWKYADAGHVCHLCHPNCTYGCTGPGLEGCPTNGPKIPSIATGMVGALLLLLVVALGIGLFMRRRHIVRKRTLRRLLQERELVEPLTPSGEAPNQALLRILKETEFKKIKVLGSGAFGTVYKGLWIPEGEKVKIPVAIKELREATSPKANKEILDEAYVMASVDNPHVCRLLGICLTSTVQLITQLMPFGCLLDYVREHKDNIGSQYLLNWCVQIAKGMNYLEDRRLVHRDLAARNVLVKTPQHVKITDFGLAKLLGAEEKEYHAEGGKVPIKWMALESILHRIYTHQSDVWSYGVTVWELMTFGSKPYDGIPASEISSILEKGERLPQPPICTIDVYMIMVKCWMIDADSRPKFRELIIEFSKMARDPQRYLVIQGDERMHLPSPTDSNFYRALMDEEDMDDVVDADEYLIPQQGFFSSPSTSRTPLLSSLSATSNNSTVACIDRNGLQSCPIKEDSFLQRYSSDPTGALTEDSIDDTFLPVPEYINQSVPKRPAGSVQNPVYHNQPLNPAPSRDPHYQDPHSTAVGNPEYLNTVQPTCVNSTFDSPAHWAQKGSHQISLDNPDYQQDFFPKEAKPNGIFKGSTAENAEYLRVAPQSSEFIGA
EGFR L858R/C797S, sequence (P00533 25-1210 C797S/L858R): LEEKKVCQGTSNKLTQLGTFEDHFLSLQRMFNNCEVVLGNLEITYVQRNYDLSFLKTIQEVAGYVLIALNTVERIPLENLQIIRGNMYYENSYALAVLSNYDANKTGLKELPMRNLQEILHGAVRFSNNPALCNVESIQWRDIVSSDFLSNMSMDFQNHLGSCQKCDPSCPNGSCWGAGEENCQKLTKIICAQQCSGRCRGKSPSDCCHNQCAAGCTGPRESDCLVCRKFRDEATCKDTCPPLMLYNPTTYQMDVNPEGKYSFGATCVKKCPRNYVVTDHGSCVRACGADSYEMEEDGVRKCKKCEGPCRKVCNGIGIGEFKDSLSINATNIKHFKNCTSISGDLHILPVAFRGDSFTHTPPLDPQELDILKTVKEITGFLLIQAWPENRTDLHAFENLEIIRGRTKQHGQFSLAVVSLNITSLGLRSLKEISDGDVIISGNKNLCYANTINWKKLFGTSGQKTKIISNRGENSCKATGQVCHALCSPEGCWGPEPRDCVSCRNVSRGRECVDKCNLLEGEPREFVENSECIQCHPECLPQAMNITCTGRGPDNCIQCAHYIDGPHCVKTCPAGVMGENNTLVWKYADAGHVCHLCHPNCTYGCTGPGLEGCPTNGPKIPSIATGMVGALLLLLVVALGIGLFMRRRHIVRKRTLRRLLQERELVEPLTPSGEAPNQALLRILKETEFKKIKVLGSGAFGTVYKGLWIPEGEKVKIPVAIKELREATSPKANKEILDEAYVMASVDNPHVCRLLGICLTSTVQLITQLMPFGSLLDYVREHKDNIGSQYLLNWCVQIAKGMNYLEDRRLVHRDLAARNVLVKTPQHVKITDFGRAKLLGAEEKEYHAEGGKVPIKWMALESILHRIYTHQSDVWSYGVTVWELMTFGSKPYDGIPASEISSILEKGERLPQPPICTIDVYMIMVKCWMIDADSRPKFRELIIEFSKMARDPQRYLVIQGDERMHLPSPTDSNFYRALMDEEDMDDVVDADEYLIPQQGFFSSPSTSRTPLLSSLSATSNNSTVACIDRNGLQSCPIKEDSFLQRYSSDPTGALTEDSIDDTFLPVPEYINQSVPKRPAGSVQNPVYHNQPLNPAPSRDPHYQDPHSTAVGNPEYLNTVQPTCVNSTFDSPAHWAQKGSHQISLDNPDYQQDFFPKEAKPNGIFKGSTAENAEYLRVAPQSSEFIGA
EGFR Del19/C797S, sequence (P00533 with tags, fused parts or gaps DEL746-750/C797S): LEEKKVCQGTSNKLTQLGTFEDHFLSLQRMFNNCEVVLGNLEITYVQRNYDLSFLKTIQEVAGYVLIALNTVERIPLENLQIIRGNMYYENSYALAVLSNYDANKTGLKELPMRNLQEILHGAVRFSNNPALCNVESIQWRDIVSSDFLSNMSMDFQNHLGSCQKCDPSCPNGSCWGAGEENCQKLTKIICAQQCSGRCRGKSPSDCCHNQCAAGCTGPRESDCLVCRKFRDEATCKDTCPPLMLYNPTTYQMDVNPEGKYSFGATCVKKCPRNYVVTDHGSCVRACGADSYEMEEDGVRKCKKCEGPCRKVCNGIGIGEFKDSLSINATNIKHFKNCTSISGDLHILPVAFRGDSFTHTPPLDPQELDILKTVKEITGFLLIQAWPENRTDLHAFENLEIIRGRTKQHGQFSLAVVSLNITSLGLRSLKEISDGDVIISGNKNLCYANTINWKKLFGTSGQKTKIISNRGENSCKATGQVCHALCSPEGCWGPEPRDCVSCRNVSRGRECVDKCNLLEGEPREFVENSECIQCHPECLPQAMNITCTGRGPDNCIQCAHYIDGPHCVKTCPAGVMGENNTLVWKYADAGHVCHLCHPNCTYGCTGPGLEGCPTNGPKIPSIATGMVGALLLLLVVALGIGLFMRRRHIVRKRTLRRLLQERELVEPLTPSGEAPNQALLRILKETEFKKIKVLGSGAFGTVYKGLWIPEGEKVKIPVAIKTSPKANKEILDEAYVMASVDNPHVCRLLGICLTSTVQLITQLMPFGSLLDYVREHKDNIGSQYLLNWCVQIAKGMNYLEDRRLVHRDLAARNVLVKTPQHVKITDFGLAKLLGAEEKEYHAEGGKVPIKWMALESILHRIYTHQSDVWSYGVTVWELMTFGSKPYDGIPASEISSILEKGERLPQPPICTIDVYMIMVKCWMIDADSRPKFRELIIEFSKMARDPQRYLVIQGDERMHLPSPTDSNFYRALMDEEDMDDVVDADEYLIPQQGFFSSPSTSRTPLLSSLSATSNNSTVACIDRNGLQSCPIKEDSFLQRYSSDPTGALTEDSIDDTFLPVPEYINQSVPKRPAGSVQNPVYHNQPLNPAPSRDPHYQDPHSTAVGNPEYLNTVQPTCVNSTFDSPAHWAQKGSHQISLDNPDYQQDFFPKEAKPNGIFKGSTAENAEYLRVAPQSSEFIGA

Cn1cc(C#Cc2cnc(Nc3ccnc(-c4cnn(S(=O)(=O)C5CC5)c4)n3)cc2N2CCC(C(C)(C)CO)CC2)cn1 [Example 14, 2-(1-(2-((2-(1-(Cyclopropylsulfonyl)-1H-pyrazol-4-yl)pyrimidin-4-yl)amino)-5-((1-methyl-1H-pyrazol-4-yl)ethynyl)pyridin-4-yl)piperidin-4-yl)-2-methylpropan-1-ol]
IC50 [1, 6]: 3.9 nM
IC50 [2, 7]: 3 nM
IC50 [3, 8]: 21.7 nM
IC50 [4, 9]: 41 nM
IC50 ([5]; IC50 WT (nM), 100 μM ATP): > 10000 nM

CN(C)CC1(F)CCN(c2cc(Nc3ccnc(-c4cnn(S(=O)(=O)C5CC5)c4)n3)ncc2C#Cc2cnn(C3CC3)c2)CC1 [Example 300, N-(5-((1-Cyclopropyl-1H-pyrazol-4-yl)ethynyl)-4-(4-((dimethylamino)methyl)-4-fluoropiperidin-1-yl)pyridin-2-yl)-2-(1-(cyclopropylsulfonyl)-1H-pyrazol-4-yl)pyrimidin-4-amine]
IC50 [1, 10]: 0.9 nM
IC50 [1, 6]: 0.9 nM
IC50 [2, 11]: 1.1 nM
IC50 [2, 7]: 1.5 nM
IC50 [3, 12]: 3.3 nM
IC50 [3, 8]: 10.3 nM
IC50 [4, 13]: 13.5 nM
IC50 [4, 9]: 288 nM
IC50 [5, 14]: 26.8 nM
IC50 ([5]; IC50 WT (nM), 100 μM ATP): > 10000 nM

Cn1cc(C#Cc2cnc(Nc3ccnc(-c4cnn(S(=O)(=O)C5CC5)c4)n3)cc2N2CCC(O)C(F)(F)C2)cn1 (stereo not shown) [Example 68, 1-(2-((2-(1-(Cyclopropylsulfonyl)-1H-pyrazol-4-yl)pyrimidin-4-yl)amino)-5-((1-methyl-1H-pyrazol-4-yl)ethynyl)pyridin-4-yl)-3,3-difluoropiperidin-4-ol]
IC50 [1, 6]: 1.3 nM
IC50 [2, 7]: 8.9 nM
IC50 [3, 8]: 31 nM
IC50 [4, 9]: 130 nM
IC50 ([5]; IC50 WT (nM), 100 μM ATP): > 10000 nM

CC(C)NC1CCN(c2cc(Nc3ccnc(-c4cnn(S(=O)(=O)C5CC5)c4)n3)ncc2C#Cc2cnn(C)c2)CC1 [Example 64, 2-(1-(Cyclopropylsulfonyl)-1H-pyrazol-4-yl)-N-(4-(4-(isopropylamino)piperidin-1-yl)-5-((1-methyl-1H-pyrazol-4-yl)ethynyl)pyridin-2-yl)pyrimidin-4-amine]
IC50 [1, 6]: 1 nM
IC50 [2, 7]: 2 nM
IC50 [3, 8]: 88.3 nM
IC50 [4, 9]: 306 nM
IC50 ([5]; IC50 WT (nM), 100 μM ATP): > 10000 nM

O=S(=O)(C1CC1)n1cc(-c2nccc(Nc3cc(N4CCC(O)CC4)c(C#Cc4cnn(C5CC5(F)F)c4)cn3)n2)cn1 (stereo not shown) [Example 82, 1-(2-((2-(1-(Cyclopropylsulfonyl)-1H-pyrazol-4-yl)pyrimidin-4-yl)amino)-5-((1-(2,2-difluorocyclopropyl)-1H-pyrazol-4-yl)ethynyl)pyridin-4-yl)piperidin-4-ol]
IC50 [1, 6]: 0.6 nM
IC50 [2, 7]: 1.8 nM
IC50 [3, 8]: 3.5 nM
IC50 [4, 9]: 22.8 nM
IC50 ([5]; IC50 WT (nM), 100 μM ATP): > 10000 nM

Cn1cc(C#Cc2cnc(Nc3ccnc(-c4cnn(S(=O)(=O)C5CC5)c4)n3)cc2N2CCC(NCCC(F)(F)F)CC2)cn1 [Example 127, 2-(1-(Cyclopropylsulfonyl)-1H-pyrazol-4-yl)-N-(5-((1-methyl-1H-pyrazol-4-yl)ethynyl)-4-(4-((3,3,3-trifluoropropyl)amino)piperidin-1-yl)pyridin-2-yl)pyrimidin-4-amine]
IC50 [1, 6]: 2.8 nM
IC50 [2, 7]: 1.8 nM
IC50 [3, 8]: 6.9 nM
IC50 [4, 9]: 45.7 nM
IC50 ([5]; IC50 WT (nM), 100 μM ATP): > 10000 nM

O=S(=O)(C1CC1)n1cc(-c2nccc(Nc3cc(N4CCC(O)CC4)c(C#Cc4cnn(CCF)c4)cn3)n2)cn1 [Example 28, 1-(2-((2-(1-(Cyclopropylsulfonyl)-1H-pyrazol-4-yl)pyrimidin-4-yl)amino)-5-((1-(2-fluoroethyl)-1H-pyrazol-4-yl)ethynyl)pyridin-4-yl)piperidin-4-ol]
IC50 [1, 6]: 0.7 nM
IC50 [2, 7]: 2.3 nM
IC50 [3, 8]: 4.9 nM
IC50 [4, 9]: 28.1 nM
IC50 ([5]; IC50 WT (nM), 100 μM ATP): > 10000 nM

O=S(=O)(C1CC1)n1cc(-c2nccc(Nc3cc(NCC4CCC(O)CC4)c(C#CC4CCCO4)cn3)n2)cn1 (stereo not shown) [Example 375, (1 r,4r)-4-(((2-((2-(1-(Cyclopropylsulfonyl)-1H-pyrazol-4-yl)pyrimidin-4-yl)amino)-5-((tetrahydrofuran-2-yl)ethynyl)pyridin-4-yl)amino)methyl)cyclohexan-1-ol]
IC50 [1, 6]: 3.2 nM
IC50 [1, 15]: 2.5 nM
IC50 [2, 7]: 8 nM
IC50 [2, 16]: 1.3 nM
IC50 [3, 8]: 34.8 nM
IC50 [3, 17]: 13.1 nM
IC50 [4, 9]: 1920 nM
IC50 [4, 18]: 82 nM
IC50 ([5]; IC50 WT (nM), 100 μM ATP): > 10000 nM
IC50 [5, 19]: 122 nM

CN(C)CCNC1CCN(c2cc(Nc3ccnc(-c4cnn(S(=O)(=O)C5CC5)c4)n3)ncc2C#Cc2ccn(C)n2)CC1 [Example 142, N^1-(1-(2-((2-(1-(Cyclopropylsulfonyl)-1H-pyrazol-4-yl)pyrimidin-4-yl)amino)-5-((1-methyl-1H-pyrazol-3-yl)ethynyl)pyridin-4-yl)piperidin-4-yl)-N^2,N^2-dimethylethane-1,2-diamine]
IC50 [1, 6]: 0.4 nM
IC50 ([1]; Km ATP, read-out: IC50 Del19/T790M/C797S (nM) Km ATP): 0.4 nM
IC50 [2, 7]: 0.9 nM
IC50 ([2]; Km ATP, read-out: IC50 L858R/T790M/C797S (nM) Km ATP): 0.2 nM
IC50 [3, 8]: 8.4 nM
IC50 ([3]; Km ATP, read-out: IC50 Del19/C797S (nM) Km ATP): 5.9 nM
IC50 [4, 9]: 176 nM
IC50 ([4]; Km ATP, read-out: IC50 L858R/C797S (nM) Km ATP): 3.9 nM
IC50 ([5]; IC50 WT (nM), 100 μM ATP): > 10000 nM
IC50 ([5]; Km ATP, read-out: IC50 WT (nM) Km ATP): 31.3 nM

Cn1ncc(C#Cc2cnc(Nc3ccnc(-c4cnn(S(=O)(=O)C5CC5)c4)n3)cc2N2CCC(O)CC2)c1C1CC1 [Example 86, 1-(5-((5-Cyclopropyl-1-methyl-1H-pyrazol-4-yl)ethynyl)-2-((2-(1-(cyclopropylsulfonyl)-1H-pyrazol-4-yl)pyrimidin-4-yl)amino)pyridin-4-yl)piperidin-4-ol]
IC50 [1, 6]: 1.4 nM
IC50 [2, 7]: 6.4 nM
IC50 [3, 8]: 23.9 nM
IC50 [4, 9]: 73.9 nM
IC50 ([5]; IC50 WT (nM), 100 μM ATP): > 10000 nM

C#Cc1cnc(Nc2ccnc(-c3cnn(S(=O)(=O)C4CC4)c3)n2)cc1N1CCC(C)(CO)CC1 [Example 247, (1-(2-((2-(1-(Cyclopropylsulfonyl)-1H-pyrazol-4-yl)pyrimidin-4-yl)amino)-5-ethynylpyridin-4-yl)-4-methylpiperidin-4-yl)methanol]
IC50 [1, 10]: 0.1 nM
IC50 [1, 6]: 0.1 nM
IC50 [2, 11]: 0.1 nM
IC50 [2, 7]: 0.5 nM
IC50 [3, 12]: 1.3 nM
IC50 [3, 8]: 1.7 nM
IC50 [4, 13]: 8.1 nM
IC50 [4, 9]: 42.3 nM
IC50 [5, 14]: 18.7 nM
IC50 ([5]; IC50 WT (nM), 100 μM ATP): 8670 nM

O=S(=O)(C1CC1)N1CCC(C#Cc2cnc(Nc3ccnc(-c4cnn(S(=O)(=O)C5CC5)c4)n3)cc2NC2CCC(O)CC2)C1 (stereo not shown) [Example 394, (1s,4s)-4-((2-((2-(1-(Cyclopropylsulfonyl)-1H-pyrazol-4-yl)pyrimidin-4-yl)amino)-5-((1-(cyclopropylsulfonyl)pyrrolidin-3-yl)ethynyl)pyridin-4-yl)amino)cyclohexan-1-ol]
IC50 [1, 6]: 0.6 nM
IC50 [1, 15]: 0.5 nM
IC50 [2, 7]: 1.5 nM
IC50 [2, 16]: 0.2 nM
IC50 [3, 8]: 12.3 nM
IC50 [3, 17]: 7.5 nM
IC50 [4, 9]: 52.5 nM
IC50 [4, 18]: 4.3 nM
IC50 ([5]; IC50 WT (nM), 100 μM ATP): > 10000 nM
IC50 [5, 19]: 15.7 nM
